Test results as given in patent publication US7863310B2, “Kinase inhibitors” (Eli Lilly and Company, priority 2004, dated 2011).

How the values were obtained:
TNF-α = test: Effect on intra-articular LPS induced TNF-α in rat ankles; assay type: in vivo; details: female Lewis rats
Description: Intra-articular injection of LPS into rat ankles induces the synthesis of TNF-α, which can be measured in synovial lavage fluid. High levels of TNF-α are detectable within 2 hours. Since the joint is the site where arthritis develops, this model can rapidly determine whether an orally administered compound has an effect on an inflammatory response in the synovium.
Six female Lewis rats (150-200 g) are place in each treatment group. The animals are given vehicle (1% NaCarboxymethylcellulose-0.25% Tween 80) or Example 6 (1 mg/kg, 3 mg/kg, 10 mg/kg, and 30 mg/kg) orally. One hour later, 10 μl LPS (10 μg) is administered intra-articularly into the right ankle of each rat, while the left ankle receives 10 μL of saline. After two hours, each ankle is lavaged with 100 μL of saline. The lavage is collected and stored at −80° C. • Group#1: Vehicle (1% NaCMC-0.25% Tween 80, 1 mL, PO) • Group#2: Example 6 (free base) (1 mg/kg, 1 mL, PO) • Group#3: Example 6 (free base) (3 mg/kg, 1 mL, PO) • Group#4: Example 6 (free base) (10 mg/kg, 1 mL, PO) • Group#5: Example 6 (free base) (30 mg/kg, 1 mL, PO)
TNF-α was measured with a commercially available ELISA kit (R&D, RTA00). […] The TMED50=3 mg/kg for the compound of Example 6 in this assay.

[1] = tested on: Female Lewis rats, collagen induced arthritis; test: Rat Collagen Induced Arthritis Efficacy Model; assay type: in vivo; details: 30 mg/kg bid, PO, 14 days
Description: Female Lewis rats ((≅190 gm, Charles River Labs) are immunized with Bovine type II collagen (2 mg/ml) emulsified with an equal volume of adjuvant (aluminum hydroxide). […]. The rats are immunized with approximately […] of the emulsion intradermally on the back neat the base of the tail. All animals are re-immunized 7 days later according to the same protocol. The rats begin to develop arthritis (characterized by swell-ling and redness of one or both ankles) from 12 to 14 days after the first immunization. The rats are equally distributed into five treatment groups at the first signs of arthritis and treatment is initiated with each rat dosed bid for 14 days.
Ankle diameter is measured with calipers 5 days a week and recorded. Data is expressed as the area under the curve (AUC) generated from the composite inflammation scores and statistical analysis performed.

| SMILES | TMED50 (TNF-α; oral, intra-articular LPS induced TNF-α in synovial lavage fluid) | reduced inflammation (AUC of composite inflammation scores, ankle diameter) [1] | inhibition of TNF-α synthesis, as measured in the synovial lavage fluid (TNF-α; oral 1, 3, 10, 30 mg/kg, intra-articular LPS 10 μg one hour later, lavage after two hours, ELISA) |
| --- | --- | --- | --- |
| CC(C)Cn1c(N)nc2ccc(-c3[nH]c(-c4c(F)cccc4F)nc3-c3ccccc3)cc21 [Example 6, 1-(Isobutyl)-2-amino-6-(2-(2,6-difluorophenyl)-4-phenyl-1H-imidazol-5-yl)-1H-benzimidazole] | 3 mg/kg | 30% |  |
| CS(=O)(=O)O.C[C@@H](n1c(N)nc2ccc(-c3[nH]c(-c4c(F)cccc4F)nc3-c3ccccc3)cc21)C(C)(C)C [Example 78, 6-[2-(2,6-Difluorophenyl)-5-phenyl-3H-imidazol-4-yl]-1-(1-(R)-methyl-2,2-dimethylpropyl)-1H-benzimidazol-2-ylamine methanesulfonate] |  |  | dose-dependent inhibition |
